# From patent US11571418B2, “Platinum compounds that inhibit constitutive STAT3 signaling and induce cell cycle arrest and apoptosis of malignant cells” (H. LEE MOFFITT CANCER CENTER AND RESEARCH INSTITUTE, INC., priority 2011, dated 2023)
# Tested on: constitutively-active Stat3 in NIH3T3/v-Src
# Test: Constitutive Stat3 DNA-binding activity in treated NIH3T3/v-Src cells (EMSA of nuclear extracts)
# Type: cell-based, mouse
# Experimental: FIGS. 3A-3D. Inhibition of Stat3-mediated gene expression by PLATINUM-401. (FIG. 3A) and (FIG. 3B) v-Src-transformed mouse fibroblasts that stably express Stat3-dependent (NIH3T3/v-Src/pLucTKS3) and Stat3-independent (NIH3T3/v-Src/pRLSRE) luciferase reporters or β-galactosidase (β-gal), as well as normal mouse fibroblast (NIH3T3) transiently transfected with pLucTKS3, pGL2-VEGF-Luc, NFkB-Luc or pLucSRE together with or without v-Src were treated with or without PLATINUM-401 for 48 h. Cytosolic extracts were then prepared from cells for luciferase and […] activities measurements. Values are the means and S.D. of three to five independent assays; (FIG. 3C) and (FIG. 3D) Nuclear extracts or whole cell lysates were prepared from IL-6-stimulated normal mouse fibroblasts (NIH3T3) or their v-Src-transformed counterpart (NIH3T3/v-Src) that are treated with or without PLATINUM-401 for different times. Samples of equal total proteins were then subjected to in vitro DNA-binding activity and EMSA analysis or for SDS-PAGE and Western blot analysis for phosphorylated and total Stat3.
# Nuclear extract preparation and gel shift assays—Nuclear extract preparation from NIH3T3 stimulated by rhIL-6, NIH3T3/hEGFR stimulated by rhEGF, v-Src-transformed fibroblasts (NIH3T3/v-Src) or tumor cell lines and electrophoretic mobility shift assay were carried out as previously described (Turkson et al., 1998; Garcia et al., 1997; Yu et al., 1995). The ^32P-labeled oligonucleotide probes used are hSIE (high affinity sis-inducible element from the c-fos gene, m67 variant, 5′-[…]) (SEQ ID NO:1) that binds Stat1 and Stat3 (Garcia et al., 1997; Wagner et al., 1990) and MGFe (mammary gland factor element from the bovine β-casein gene promoter, 5′-AGATTTCTAGGAATTCAA) (SEQ ID NO:2) for Stat1 and Stat5 binding (49,50). Except where indicated, inhibitor compound was pre-incubated with the nuclear extract for 30 min at room temperature prior to incubation with radiolabeled probe.
# To further investigate the activities of PLATINUM-401, the inventors treated malignant cells and measured effects on Stat3 signaling. […] Taken together with the results in FIG. 1, these findings indicate that PLATINUM-401 blocks the binding of activated Stat3 to its responsive elements in the promoters of target genes. Moreover, in a time- and dose-dependent manner, PLATINUM-401 inhibits the constitutive or ligand-induced activation of Stat3 DNA-binding activity (FIG. 3C), as well as tyrosine phosphorylation in mouse fibroblasts (FIG. 3D and data not shown). […] Changes in Stat3 protein levels were minimal. […] Results together indicate that at the 5-10 μM PLATINUM-401 that inhibits intracellular Stat3 signaling, there is no observable non-specific effect on non-Stat3 related pathways investigated here.
# To further elucidate the interaction between Stat3 and PLATINUM-401, v-Src-transformed mouse fibroblasts were transfected with Stat3 protein and then used to investigate PLATINUM-401 activity. The transfection of wild-type Stat3 into the v-Src-transformed fibroblasts results in higher Stat3 DNA-binding activity over that of parentals, as measured by in vitro DNA-binding activity and EMSA analysis (FIG. 7C, left panel, lanes 3 and 6 versus 1 and 2). This is due to the increased expression of Stat3 protein and the consequent phosphorylation by oncogenic Src tyrosine kinase that is present in these cells.
structure (smiles),measurement,setting,value
CC(O)CN1CCN(CC(C)O)CC1 (centres unmarked) [PLATINUM-401],"constitutively-active Stat3 DNA-binding activity, cells transfected with wild-type Stat3","NIH3T3/v-Src transfected with exogenous wild-type Stat3, 5 μM, 36 h",no significant reduction
same,time required for significant inhibition of constitutively-active Stat3,"NIH3T3/v-Src, data not shown",> 12 h
same,concentration that inhibits intracellular Stat3 signaling,mouse fibroblasts,5 to 10 µM
same,"constitutively-active Stat3 DNA-binding activity, mock-transfected cells","parental, mock-transfected NIH3T3/v-Src, 5 μM, 36 h",significant reduction
same,constitutive activation of Stat3 DNA-binding activity,time- and dose-dependent,inhibits
